Assay results taken from ChEMBL document CHEMBL5209583, “pH biosensor based assay for SLC9B2 using HEK-293 SLC9B2 OE cells” (2022).

Molecular target: T1, Sodium/hydrogen exchanger 9B2 (Homo sapiens, UniProt Q86UD5)
T1 sequence (Q86UD5 whole entry): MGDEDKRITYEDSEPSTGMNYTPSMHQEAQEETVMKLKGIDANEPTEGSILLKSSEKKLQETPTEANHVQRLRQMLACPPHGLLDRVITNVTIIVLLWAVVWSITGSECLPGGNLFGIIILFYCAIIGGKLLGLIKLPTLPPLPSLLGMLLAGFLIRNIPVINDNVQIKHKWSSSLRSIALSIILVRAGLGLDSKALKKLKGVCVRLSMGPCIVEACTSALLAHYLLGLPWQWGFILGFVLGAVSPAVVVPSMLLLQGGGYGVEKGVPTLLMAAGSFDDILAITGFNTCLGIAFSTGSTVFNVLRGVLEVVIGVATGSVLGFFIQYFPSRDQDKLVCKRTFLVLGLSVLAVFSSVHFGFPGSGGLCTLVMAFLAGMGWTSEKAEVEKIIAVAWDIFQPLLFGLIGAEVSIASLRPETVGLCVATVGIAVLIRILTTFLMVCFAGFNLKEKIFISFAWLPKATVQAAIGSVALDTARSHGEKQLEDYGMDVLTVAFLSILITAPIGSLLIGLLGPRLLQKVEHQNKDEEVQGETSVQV
Test: Inhibition of the Sodium/Hydrogen Exchanger-Like Domain-Containing Protein 2 (NHA2, SLC9B2) as assessed by a sensor pH-sensitive genetically encoded fluorescent sensor (pHAxensor) in HEK-293 cells stably transfected with SLC9B2 (PubChem AID: 1794821)
Type: functional, cell-based, HEK293

- IC50: 90 µM
SMILES: O=C(CCc1ccc(O)cc1)c1c(O)cc(O)cc1O [PHLORETIN]
